According to PubChem BioAssay (NCI):
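Grown in 96-well plates, cells were treated for 48 hours with each compound at five concentrations. Insufficient inhibition: endpoint recorded as highest concentration tested. TGI is the concentration that stops growth completely.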

Experiments:
Assay in all cases: NCI anticancer screen, dose series, 48 h
SK-MEL-2 melanoma = system: SK-MEL-2 melanoma
A549 NSCLC = system: A549 NSCLC
SK-OV-3 ovarian = system: SK-OV-3 ovarian
MDA-N = system: MDA-N
OVCAR-8 ovarian = system: OVCAR-8 ovarian
CCRF-CEM leukemia = system: CCRF-CEM leukemia
NCI-H522 lung = system: NCI-H522 lung
OVCAR-5 ovarian = system: OVCAR-5 ovarian
ACHN renal = system: ACHN renal
K-562 leukemia = system: K-562 leukemia
IGROV1 ovarian = system: IGROV1 ovarian
HT29 colon = system: HT29 colon
SF-539 CNS = system: SF-539 CNS
U251 CNS = system: U251 CNS
UACC-62 melanoma = system: UACC-62 melanoma
HCT-116 colon = system: HCT-116 colon
TK-10 renal = system: TK-10 renal
EKVX NSCLC = system: EKVX NSCLC
MCF7 breast = system: MCF7 breast
SK-MEL-5 melanoma = system: SK-MEL-5 melanoma
NCI-H23 lung = system: NCI-H23 lung
M14 melanoma = system: M14 melanoma
UACC-257 melanoma = system: UACC-257 melanoma
DU-145 prostate = system: DU-145 prostate
CAKI-1 renal = system: CAKI-1 renal
SW-620 colon = system: SW-620 colon
KM12 colon = system: KM12 colon
HCT-15 colon = system: HCT-15 colon
MOLT-4 leukemia = system: MOLT-4 leukemia
OVCAR-4 ovarian = system: OVCAR-4 ovarian
A498 renal = system: A498 renal
T-47D breast = system: T-47D breast
NCI-H226 lung = system: NCI-H226 lung
HS 578T breast = system: HS 578T breast
786-0 renal = system: 786-0 renal
NCI/ADR-RES ovarian = system: NCI/ADR-RES ovarian
SNB-75 CNS = system: SNB-75 CNS
SR leukemia = system: SR leukemia
SK-MEL-28 melanoma = system: SK-MEL-28 melanoma
PC-3 prostate = system: PC-3 prostate
MDA-MB-435 = system: MDA-MB-435
RXF 393 renal = system: RXF 393 renal
MALME-3M melanoma = system: MALME-3M melanoma
NCI-H460 lung = system: NCI-H460 lung
SF-295 CNS = system: SF-295 CNS
HOP-62 NSCLC = system: HOP-62 NSCLC
SF-268 CNS = system: SF-268 CNS
OVCAR-3 ovarian = system: OVCAR-3 ovarian
HOP-92 NSCLC = system: HOP-92 NSCLC
MDA-MB-231 breast = system: MDA-MB-231 breast
SN12C renal = system: SN12C renal
LOX IMVI melanoma = system: LOX IMVI melanoma
BT-549 breast = system: BT-549 breast
HL-60(TB) leukemia = system: HL-60(TB) leukemia
UO-31 renal = system: UO-31 renal
COLO 205 colon = system: COLO 205 colon
SNB-19 CNS = system: SNB-19 CNS

`COC(=O)C1=C(O)C(C(=O)OC)[C@@]2(O)[C@@H](C(=O)OC)C(c3ccc(OC(=O)/C(=C/c4ccccc4)c4ccccc4)cc3)C[C@@H]1[C@@H]2C(=O)OC` (some centres not stated) was tested, and the TGI (SK-MEL-2 melanoma) was 46.2 µM, the TGI (A549 NSCLC) was greater than 100 µM and the TGI (SK-OV-3 ovarian) was greater than 100 µM. The TGI (MDA-N) was 87.7 µM, the TGI (OVCAR-8 ovarian) was greater than 100 µM and the TGI (CCRF-CEM leukemia) was greater than 100 µM. It also gave a TGI (NCI-H522 lung) greater than 100 µM, a TGI (OVCAR-5 ovarian) greater than 100 µM and a TGI (ACHN renal) greater than 100 µM. The TGI (K-562 leukemia) was greater than 100 µM, the TGI (IGROV1 ovarian) was greater than 100 µM and the TGI (HT29 colon) was greater than 100 µM. For the same molecule, the TGI (SF-539 CNS) was 8.44 µM, the TGI (U251 CNS) was greater than 100 µM and the TGI (UACC-62 melanoma) was 17.2 µM. For the same molecule, the TGI (HCT-116 colon) was greater than 100 µM, the TGI (TK-10 renal) was 51.4 µM and the TGI (EKVX NSCLC) was greater than 100 µM. For the same molecule, the TGI (MCF7 breast) was greater than 100 µM, the TGI (SK-MEL-5 melanoma) was greater than 100 µM and the TGI (NCI-H23 lung) was greater than 100 µM. It also gave a TGI (M14 melanoma) of 33 µM, a TGI (UACC-257 melanoma) greater than 100 µM and a TGI (DU-145 prostate) greater than 100 µM. For the same molecule, the TGI (CAKI-1 renal) was greater than 100 µM, the TGI (SW-620 colon) was greater than 100 µM and the TGI (KM12 colon) was greater than 100 µM. It also gave a TGI (HCT-15 colon) greater than 100 µM, a TGI (MOLT-4 leukemia) greater than 100 µM and a TGI (OVCAR-4 ovarian) greater than 100 µM. It also gave a TGI (A498 renal) of 96.4 µM, a TGI (T-47D breast) greater than 100 µM and a TGI (NCI-H226 lung) of 42.6 µM. It also gave a TGI (HS 578T breast) greater than 100 µM, a TGI (786-0 renal) greater than 100 µM and a TGI (NCI/ADR-RES ovarian) greater than 100 µM. The TGI (SNB-75 CNS) was 35.6 µM, the TGI (SR leukemia) was greater than 100 µM and the TGI (SK-MEL-28 melanoma) was greater than 100 µM. For the same molecule, the TGI (PC-3 prostate) was greater than 100 µM, the TGI (MDA-MB-435) was greater than 100 µM and the TGI (RXF 393 renal) was 63.1 µM. The TGI (MALME-3M melanoma) was greater than 100 µM, the TGI (NCI-H460 lung) was greater than 100 µM and the TGI (SF-295 CNS) was greater than 100 µM. The TGI (HOP-62 NSCLC) was greater than 100 µM, the TGI (SF-268 CNS) was greater than 100 µM and the TGI (OVCAR-3 ovarian) was greater than 100 µM. The TGI (HOP-92 NSCLC) was greater than 100 µM, the TGI (MDA-MB-231 breast) was greater than 100 µM and the TGI (SN12C renal) was greater than 100 µM. The TGI (LOX IMVI melanoma) was 22.5 µM, the TGI (BT-549 breast) was greater than 100 µM and the TGI (HL-60(TB) leukemia) was greater than 100 µM. For the same molecule, the TGI (UO-31 renal) was 40.4 µM, the TGI (COLO 205 colon) was greater than 100 µM and the TGI (SNB-19 CNS) was greater than 100 µM.
